Results as given in patent US20240189263A1, “DERIVATIZED C60 MOLECULES AND METHODS AND MATERIALS FOR USING DERIVATIZED C60 MOLECULES TO REDUCE RADIATION INJURY” (Mayo Foundation for Medical Education and Research, priority 2021, published 2024).

Columns and labels:
Type in all cases: cell-based
[1] = test system: HUVEC cells; test: ROS by H2-DCFDA probe after proton irradiation, HUVEC; details: 50 μM, positive control
From the text: (§1) Cell lines were irradiated using pencil beam scanning (PBS) proton beams produced by IBA ProteusOne (Ion Beam Applications, Louvain-la-Neuve, Belgium). Single layer mono-energy 227 MeV pencil beams with uniform spacing of 0.25 cm between each spot were used to create a large field size with uniform dose distribution (±2%) that encompassed all sample wells containing the cells. A fixed source to surface distance (SSD) setup and gantry at 180 degrees was used to delivery 0.5, 1, 2, 4, and 6 Gray (Gy) dose of ionizing radiation to cells. The cells were place at an 8 cm depth, with a linear energy transfer (LET) of approximately 1.7 keV/μm, using solid water slabs as a buildup. […] The monitor units needed to deliver the intended dose were calculated using the measure dose/MU values.
(§2) Post radiation, 2′,7′-dichlorodihydrofluorescein diacetate (H2-DCFDA) probes were used to measure the level of reactive oxygen species (ROS) post-proton radiation (1 Gy, 230 MeV proton beam). […] A fluorescence microplate reader (SpectraMax M5, Molecular Devices Corporation, California, USA) was used to detect the generation of fluorescent DCF molecules with an excitation filter of 485 nm and an emission filter of 525 nm, with a 515 nm cutoff filter. […] Following irradiation, the cells were transported back for plate reading, 30 minutes post radiation.

[2] = test system: HepG2 cells; test: ROS by H2-DCFDA probe after proton irradiation, HepG2; details: control HepG2 cells, 50 μM, positive control
From the text: as §1, §2

[3] = test system: NIH3T3 cells; test: ROS by H2-DCFDA probe after proton irradiation, NIH3T3; details: NIH3T3, 50 μM, positive control
From the text: as §1, §2

[4] = test system: N2A cells; test: ROS by H2-DCFDA probe after proton irradiation, N2A; details: 50 μM, positive control
From the text: as §1, §2

Measured: ROS (H2-DCFDA fluorescence)

CC(=O)N[C@@H](CS)C(=O)O [NAC, N-acetyl cysteine, reference compound]
decrease in ROS: all assays above
